Reference: paper PMC11620503 (Antimicrobial Agents and Chemotherapy, 2024)
In brackets after ≈: the same amount, converted by molar mass. Like-named read-outs stand apart in the source and are kept apart here.

Key:
Experiment in all cases: MIC, broth microdilution
[1] = system: 207 Enterobacterales including carbapenem-resistant isolates; format: cell-based; details: for MIC90: read-out: MIC90
[2] = system: MEM-nonsusceptible Enterobacterales; format: cell-based; details: MEM-nonsusceptible Enterobacterales (127), cefiderocol 126 isolates; for MIC90: read-out: MIC90
[3] = system: serine-carbapenemase-producing isolates (Enterobacterales); format: cell-based; details: Enterobacterales with serine-carbapenemases (80); for MIC50 / MIC90: fixed concentration (μg/mL) in label; for MIC50: read-out: MIC50; for MIC90: read-out: MIC90
[4] = system: MBL-producing isolates (Enterobacterales); format: cell-based; details: Enterobacterales with metallo-carbapenemases (74), cefiderocol 73 isolates; for MIC90: read-out: MIC90
[5] = system: 55 isolates of A. baumannii; format: cell-based, Acinetobacter baumannii; details: Acinetobacter baumannii (55); for MIC90: read-out: MIC90
[6] = system: 96 P. aeruginosa; format: cell-based, Pseudomonas aeruginosa; details: Pseudomonas aeruginosa (96); for MIC50 / MIC90: fixed concentration (μg/mL) in label; for MIC50: read-out: MIC50; for MIC90: read-out: MIC90
[7] = system: MEM-, imipenem/relebactam-, and ceftolozane/tazobactam-nonsusceptible P. aeruginosa; format: cell-based, Pseudomonas aeruginosa; details: for CLSI MIC interpretation I (intermediate) / CLSI MIC interpretation R (resistant) / CLSI MIC interpretation S (susceptible): marked c: breakpoints for β-lactam alone; for MIC50 / MIC90: Pseudomonas aeruginosa; for MIC50: read-out: MIC50; for MIC90: read-out: MIC90
[8] = system: MEM-nonsusceptible Enterobacterales with serine-carbapenemases; format: cell-based; details: MEM-nonsusceptible Enterobacterales with serine-carbapenemases (58)
[9] = system: MEM-nonsusceptible Enterobacterales with metallo-carbapenemases; format: cell-based; details: MEM-nonsusceptible Enterobacterales with metallo-carbapenemases (55), cefiderocol 54 isolates
[10] = All Enterobacterales (207), cefiderocol 205 isolates, CLSI breakpoints, marked c: breakpoints for β-lactam alone, tigecycline: FDA breakpoints
[11] = CLSI breakpoints, marked c: breakpoints for β-lactam alone, tigecycline: FDA breakpoints
[12] = fixed concentration (μg/mL) in label, read-out: MIC50
[13] = fixed concentration (μg/mL) in label
[14] = CLSI breakpoints, marked c: breakpoints for β-lactam alone
[15] = Imipenem/relebactam-nonsusceptible Pseudomonas aeruginosa (43), CLSI breakpoints
[16] = MEM-nonsusceptible Pseudomonas aeruginosa (76), CLSI breakpoints
[17] = Imipenem/relebactam-nonsusceptible Pseudomonas aeruginosa (43), fixed concentration (μg/mL) in label
[18] = MEM-nonsusceptible Pseudomonas aeruginosa (76), fixed concentration (μg/mL) in label
[19] = fixed concentration (μg/mL) in label, read-out: MIC90

With `NCC[C@H](O)C(=O)N[C@@H]1C[C@H](N)[C@@H](O[C@H]2O[C@H](CN)[C@@H](O)[C@H](O)[C@H]2O)[C@H](O)[C@H]1O[C@H]1O[C@H](CO)[C@@H](O)[C@H](N)[C@H]1O` [Amikacin] the “CLSI MIC interpretation I (intermediate)” value [1, 10] was 6.3%, the “CLSI MIC interpretation R (resistant)” value [1, 10] was 36.7% and the “CLSI MIC interpretation S (susceptible)” value [1, 10] was 57%. The MIC50 ([1]; read-out: MIC50) was 4 µg/mL (≈ 6.83 µM), the MIC90 [1] was greater than 64 µg/mL and the “CLSI MIC interpretation I (intermediate)” value [2, 11] was 7.9%. For the same molecule, the “CLSI MIC interpretation R (resistant)” value [2, 11] was 52%, the “CLSI MIC interpretation S (susceptible)” value [2, 11] was 40.2% and the MIC50 [2, 12] was 16 µg/mL (≈ 27.3 µM). For the same molecule, the MIC90 [2, 13] was greater than 64 µg/mL, the “CLSI MIC interpretation I (intermediate)” value [3, 11] was 8.8% and the “CLSI MIC interpretation R (resistant)” value [3, 11] was 37.5%. The “CLSI MIC interpretation S (susceptible)” value [3, 11] was 53.8%, the MIC50 [3] was 4 µg/mL (≈ 6.83 µM) and the MIC90 [3] was 64 µg/mL (≈ 109 µM). The “CLSI MIC interpretation I (intermediate)” value [4, 11] was 5.4%, the “CLSI MIC interpretation R (resistant)” value [4, 11] was 52.7% and the “CLSI MIC interpretation S (susceptible)” value [4, 11] was 41.9%. For the same molecule, the MIC50 [4, 12] was 16 µg/mL (≈ 27.3 µM), the MIC90 [4, 13] was greater than 64 µg/mL and the “CLSI MIC interpretation I (intermediate)” value [5, 14] was 14.5%. For the same molecule, the “CLSI MIC interpretation R (resistant)” value [5, 14] was 56.4%, the “CLSI MIC interpretation S (susceptible)” value [5, 14] was 29.1% and the MIC50 [5, 12] was 64 µg/mL (≈ 109 µM). For the same molecule, the MIC90 [5, 13] was greater than 64 µg/mL, the “CLSI MIC interpretation I (intermediate)” value [6, 14] was 7.3% and the “CLSI MIC interpretation R (resistant)” value [6, 14] was 29.2%. For the same molecule, the “CLSI MIC interpretation S (susceptible)” value [6, 14] was 63.5%, the MIC50 [6] was 8 µg/mL (≈ 13.7 µM) and the MIC90 [6] was greater than 64 µg/mL. The “CLSI MIC interpretation (%) I” value ([7]; I, intermediate (including susceptible dose-dependent), CLSI breakpoints, last subgroup of Table 2) was 11.1%, the “CLSI MIC interpretation I (intermediate)” value [7, 15] was 9.3% and the “CLSI MIC interpretation R (resistant)” value [7, 15] was 58.1%. The “CLSI MIC interpretation S (susceptible)” value [7, 15] was 32.6%, the “CLSI MIC interpretation I (intermediate)” value [7, 16] was 7.9% and the “CLSI MIC interpretation R (resistant)” value [7, 16] was 36.8%. The “CLSI MIC interpretation S (susceptible)” value [7, 16] was 55.3%, the MIC50 [7, 17] was 64 µg/mL and the MIC90 [7, 17] was greater than 64 µg/mL. It also gave an MIC50 [7, 18] of 8 µg/mL (≈ 13.7 µM), an MIC90 [7, 18] greater than 64 µg/mL and an MIC50 ([7]; Table 2, broth microdilution) of 64 µg/mL (≈ 109 µM). For the same molecule, the MIC90 ([7]; Table 2, broth microdilution) was greater than 64 µg/mL, the “CLSI MIC interpretation (%) R” value ([7]; R, resistant, CLSI breakpoints, last subgroup of Table 2) was 55.6% and the “CLSI MIC interpretation (%) S” value ([7]; S, susceptible, CLSI breakpoints, last subgroup of Table 2) was 33.3%. The “CLSI MIC interpretation I (intermediate)” value [8, 11] was 10.3%, the “CLSI MIC interpretation R (resistant)” value [8, 11] was 44.8% and the “CLSI MIC interpretation S (susceptible)” value [8, 11] was 44.8%. The MIC50 [8, 12] was 8 µg/mL (≈ 13.7 µM), the MIC90 [8, 19] was 64 µg/mL (≈ 109 µM) and the “CLSI MIC interpretation I (intermediate)” value [9, 11] was 5.5%. For the same molecule, the “CLSI MIC interpretation R (resistant)” value [9, 11] was 65.5%, the MIC50 [9, 12] was 32 µg/mL (≈ 54.6 µM) and the MIC90 [9, 19] was greater than 64 µg/mL.

`O=C(O)c1cn(C2CC2)c2cc(N3CCNCC3)c(F)cc2c1=O` [Ciprofloxacin] gave an MIC90 [1] greater than 64 µg/mL, an MIC90 [2, 13] greater than 64 µg/mL and an MIC50 [3] of 32 µg/mL (≈ 96.6 µM). For the same molecule, the MIC90 [3] was greater than 64 µg/mL, the MIC90 [4, 13] was greater than 64 µg/mL and the MIC90 [5, 13] was greater than 64 µg/mL. It also gave an MIC50 [6] of 16 µg/mL (≈ 48.3 µM), an MIC90 [6] of 64 µg/mL (≈ 193 µM) and an MIC50 [7, 17] of 32 µg/mL. For the same molecule, the MIC90 [7, 17] was 64 µg/mL, the MIC50 [7, 18] was 16 µg/mL (≈ 48.3 µM) and the MIC90 [7, 18] was 64 µg/mL (≈ 193 µM). For the same molecule, the MIC50 ([7]; Table 2, broth microdilution) was 32 µg/mL (≈ 96.6 µM) and the MIC90 ([7]; Table 2, broth microdilution) was 64 µg/mL (≈ 193 µM).
